Measured values from article PMC6261661 (ACS chemical neuroscience, 2018).
Square brackets hold non-standard residues; d marks the D form. Peptide text beside a SMILES is read from it. * marks the point of attachment. Bip = N[C@@H](Cc1ccc(-c2ccccc2)cc1)C(=O)O; dBip = N[C@H](Cc1ccc(-c2ccccc2)cc1)C(=O)O; dPhe(4-I) = N[C@H](Cc1ccc(I)cc1)C(=O)O; 1Nal = N[C@@H](Cc1cccc2ccccc12)C(=O)O; 2Nal = N[C@@H](Cc1ccc2ccccc2c1)C(=O)O; d1Nal = N[C@H](Cc1cccc2ccccc12)C(=O)O; Bta = N[C@@H](Cc1csc2ccccc12)C(=O)O; 3Pal = N[C@@H](Cc1cccnc1)C(=O)O; 4Pal = N[C@@H](Cc1ccncc1)C(=O)O; Tic = O=C(O)[C@@H]1Cc2ccccc2CN1; 2Thi = N[C@@H](Cc1cccs1)C(=O)O; Octanoyl = CCCCCCCC(=O)*

Experiments:
Format in all cases: cell-based
mMC5R = mMC5R (Mus musculus, UniProt P41149); test: CRE/β-galactosidase reporter gene bioassay, agonist activity at mMC5R; conditions: for mMC5R pharmacology in words: comparisons are to reference peptide 1; for mMC5R Fold Diff.: fold difference in EC50 vs peptide 1, negative prefix = more potent than 1; for mMC5R fold less potent than peptide 1: less potent than 1
mMC3R [1] = molecular target: T1, mMC3R (Mus musculus, UniProt P33033); test: Antagonist Schild analysis against agonist MTII at mMC3R; conditions: for mMC3R pharmacology class printed in Fold Diff column (Ant, SA): Ant = antagonist, SA = some stimulatory activity at 100 µM
mMC4R [2] = molecular target: T2, mMC4R (Mus musculus, UniProt P56450); test: CRE/β-galactosidase reporter gene bioassay, agonist activity at mMC4R; conditions: for mMC4R Fold Diff.: fold difference in EC50 vs peptide 1, negative prefix = more potent than 1; for mMC4R fold less potent than compound 1: less potent than 1
mMC1R = mMC1R (Mus musculus, UniProt Q01727); test: CRE/β-galactosidase reporter gene bioassay, agonist activity at mMC1R; conditions: for mMC1R Fold Diff: fold difference in EC50 vs peptide 1, negative prefix = more potent than 1; for EC50: mMC1R EC50, agonist, HEK-293 cells stably expressing receptor, ±SEM; for mMC1R pharmacology in words: comparisons are to reference peptide 1
mMC3R [3] = molecular target: T1, mMC3R; test: cell-based; conditions: for mMC3R Fold Diff: fold difference in EC50 vs peptide 1, negative prefix = more potent than 1
mMC4R [4] = molecular target: T2, mMC4R; test: Antagonist Schild analysis against agonist MTII at mMC4R

Sequence of mMC5R (P41149 whole entry): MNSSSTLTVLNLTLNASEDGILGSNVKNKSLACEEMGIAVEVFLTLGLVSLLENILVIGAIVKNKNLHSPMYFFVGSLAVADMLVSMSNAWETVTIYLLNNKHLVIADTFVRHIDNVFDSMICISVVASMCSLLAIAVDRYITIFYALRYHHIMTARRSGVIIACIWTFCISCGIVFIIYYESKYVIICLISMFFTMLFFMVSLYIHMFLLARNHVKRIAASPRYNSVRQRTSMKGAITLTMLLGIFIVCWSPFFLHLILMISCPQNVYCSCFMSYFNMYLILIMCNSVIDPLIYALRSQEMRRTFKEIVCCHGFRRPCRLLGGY
T2 sequence (P56450 whole entry): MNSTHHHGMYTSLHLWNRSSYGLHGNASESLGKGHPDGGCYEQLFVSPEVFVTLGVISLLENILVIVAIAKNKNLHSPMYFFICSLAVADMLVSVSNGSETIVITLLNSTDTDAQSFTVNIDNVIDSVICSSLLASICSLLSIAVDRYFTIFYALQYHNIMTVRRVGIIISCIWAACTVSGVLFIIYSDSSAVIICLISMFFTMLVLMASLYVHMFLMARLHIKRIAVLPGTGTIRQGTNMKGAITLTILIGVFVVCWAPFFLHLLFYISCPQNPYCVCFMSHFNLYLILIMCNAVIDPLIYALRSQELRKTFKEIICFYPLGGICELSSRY
Sequence of mMC1R (Q01727 whole entry): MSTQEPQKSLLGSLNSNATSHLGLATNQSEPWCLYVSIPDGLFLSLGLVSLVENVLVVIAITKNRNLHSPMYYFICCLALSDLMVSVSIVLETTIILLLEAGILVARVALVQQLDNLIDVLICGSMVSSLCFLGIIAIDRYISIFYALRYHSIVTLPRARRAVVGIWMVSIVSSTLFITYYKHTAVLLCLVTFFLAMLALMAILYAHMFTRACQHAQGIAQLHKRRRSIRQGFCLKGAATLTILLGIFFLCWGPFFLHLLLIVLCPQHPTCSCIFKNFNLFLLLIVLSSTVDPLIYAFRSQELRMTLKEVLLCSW
T1 sequence (P33033 whole entry): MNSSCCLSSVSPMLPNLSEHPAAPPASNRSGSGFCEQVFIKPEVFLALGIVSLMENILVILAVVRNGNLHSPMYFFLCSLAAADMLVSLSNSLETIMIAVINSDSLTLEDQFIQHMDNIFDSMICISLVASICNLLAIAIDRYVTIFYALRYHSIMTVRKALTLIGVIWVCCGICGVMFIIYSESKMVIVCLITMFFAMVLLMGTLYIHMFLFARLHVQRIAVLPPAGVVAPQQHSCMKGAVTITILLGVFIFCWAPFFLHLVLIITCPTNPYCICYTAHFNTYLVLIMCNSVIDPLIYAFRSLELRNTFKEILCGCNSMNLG

Structure (SMILES)	EC50 (mMC5R)	mMC5R pharmacology in words (mMC5R)	EC50 (mMC4R [2])	mMC4R Fold Diff. (mMC4R [2])	mMC1R Fold Diff (mMC1R)	EC50 (mMC1R)	mMC3R relative percentage of stimulation at 100 μM (mMC3R [3]; 100000.0)	mMC5R Fold Diff. (mMC5R)	EC50 (mMC3R [3])	also measured
CCCCCCCC(=O)N[C@@H](Cc1c[nH]cn1)C(=O)N[C@H](Cc1ccc(-c2ccccc2)cc1)C(=O)N[C@@H](CCCNC(=N)N)C(=O)N[C@@H](Cc1c[nH]c2ccccc12)C(N)=O [Peptide 7, Octanoyl-His-DBip-Arg-Trp-NH2]	15 ± 4 nM	equipotent	500 ± 200 nM	36	−40	3.7 ± 0.9 nM	50%−65%	–	–	Kb (mMC3R [1]): 63.1 nM; mMC3R pharmacology class printed in Fold Diff column (Ant, SA) (mMC3R [1]): Ant; mMC1R fold difference in EC50, more potent than reference peptide 1 (mMC1R; more potent agonist than 1): 40 fold; mMC3R relative percentage of stimulation at 100 μM (mMC3R [3]; ligand at 100 μM, compared to maximal response generated by α-MSH): 60%
CC(=O)N[C@@H](Cc1c[nH]cn1)C(=O)N[C@H](Cc1ccc(-c2ccccc2)cc1)C(=O)N[C@@H](CCCNC(=N)N)C(=O)N[C@@H](Cc1ccc2ccccc2c1)C(N)=O [Peptide 36, Ac-His-DBip-Arg-Nal(2’)-NH2] (Ac-H[dBip]R[2Nal]-NH2)	20.7 ± 4.1 nM	less potent	52 ± 18 nM	4	−8	17 ± 5.4 nM	50%	4	–	Kb (mMC3R [1]): 25.1 nM; mMC3R pharmacology class printed in Fold Diff column (Ant, SA) (mMC3R [1]): SA Ant; mMC1R pharmacology in words (mMC1R): more potent
CC(=O)N[C@@H](Cc1c[nH]c2ccccc12)C(=O)N[C@H](Cc1ccccc1)C(=O)N[C@@H](CCCNC(=N)N)C(=O)N[C@@H](Cc1cccc2ccccc12)C(N)=O [Peptide 24, Ac-Trp-DPhe-Arg-Nal(1’)-NH2] (Ac-W[dF]R[1Nal]-NH2)	3000 ± 1200 nM	–	1100 ± 300 nM	77	23	3300 ± 1200 nM	50%	566	–	–
CC(=O)N[C@@H](Cc1cccs1)C(=O)N[C@H](Cc1ccccc1)C(=O)N[C@@H](CCCNC(=N)N)C(=O)N[C@@H](Cc1csc2ccccc12)C(N)=O [Peptide 27, Ac-2Thi-DPhe-Arg-3Bal-NH2] (Ac-[2Thi][dF]R[Bta]-NH2)	970 ± 290 nM	–	1300 ± 300 nM	91	45	6400 ± 1600 nM	–	183	> 100000 nM	–
CC(=O)N[C@@H](Cc1c[nH]c2ccccc12)C(=O)N[C@H](Cc1ccccc1)C(=O)N[C@@H](CCCNC(=N)N)C(=O)N[C@@H](Cc1csc2ccccc12)C(N)=O [Peptide 25, Ac-Trp-DPhe-Arg-3Bal-NH2] (Ac-W[dF]R[Bta]-NH2)	4800 ± 1700 nM	–	7900 ± 2400 nM	576	57	8000 ± 3000 nM	–	905	> 100000 nM	mMC5R fold less potent than peptide 1 (mMC5R): approximately 1000 fold; mMC4R fold less potent than compound 1 (mMC4R [2]): 580 fold
CC(=O)N[C@@H](Cc1c[nH]cn1)C(=O)N[C@H](Cc1ccc(I)cc1)C(=O)N[C@@H](CCCNC(=N)N)C(=O)N1Cc2ccccc2C[C@H]1C(N)=O [Peptide 31, Ac-His-(pI)DPhe-Arg-Tic-NH2] (Ac-H[dPhe(4-I)]R[Tic]-NH2)	130 ± 30 nM	less potent	640 ± 60 nM	46	−6	24 ± 4 nM	–	25	2900 ± 400 nM	selectivity for the mMC1R, fold difference as compared to the mMC3R (mMC1R; agonist EC50): 120 fold; selectivity for the mMC1R, fold difference as compared to the mMC4R (mMC1R; agonist EC50): 26 fold; selectivity for the mMC1R, fold difference as compared to the mMC5R (mMC1R; agonist EC50): 6 fold; mMC1R pharmacology in words (mMC1R): more potent; mMC3R Fold Diff (mMC3R [3]): 5
CC(=O)N[C@@H](Cc1c[nH]c2ccccc12)C(=O)N[C@H](Cc1cccc2ccccc12)C(=O)N[C@@H](CCCNC(=N)N)C(=O)N[C@@H](Cc1c[nH]c2ccccc12)C(N)=O [Peptide 19, Ac-Trp-DNal(1’)-Arg-Trp-NH2] (Ac-W[d1Nal]RW-NH2)	3900 ± 2200 nM	–	12000 ± 4000 nM	870	70	9700 ± 4700 nM	–	725	> 100000 nM	–
CC(=O)N[C@@H](Cc1cccs1)C(=O)N[C@H](Cc1ccccc1)C(=O)N[C@@H](CCCNC(=N)N)C(=O)N[C@@H](Cc1ccc2ccccc2c1)C(N)=O [Peptide 28, Ac-2Thi-DPhe-Arg-Nal(2’)-NH2] (Ac-[2Thi][dF]R[2Nal]-NH2)	76 ± 18 nM	–	450 ± 190 nM	33	19	2600 ± 1300 nM	–	14	12000 ± 6000 nM	mMC5R fold less potent than peptide 1 (mMC5R): 14 fold; fold more potent at the mMC5R compared to the mMC1R (mMC5R; selectivity, agonist EC50): 35 fold; fold more potent at the mMC5R compared to the mMC3R (mMC5R; selectivity, agonist EC50): 163 fold; fold more potent at the mMC5R compared to the mMC4R (mMC5R; selectivity, agonist EC50): 6 fold; mMC3R Fold Diff (mMC3R [3]): 22
CCCCCCCC(=O)N[C@@H](Cc1cnc[nH]1)C(=O)N[C@H](Cc1ccccc1)C(=O)N[C@@H](CCCNC(=N)N)C(=O)N[C@@H](Cc1ccc(-c2ccccc2)cc1)C(N)=O [Peptide 2, Octanoyl-His-DPhe-Arg-Bip-NH2] (Octanoyl-H[dF]R[Bip]-NH2)	62 ± 4 nM	–	–	–	–	45 ± 12 nM	–	–	–	Kb (mMC4R [4]): 100 nM
CCCCCCCC(=O)N[C@@H](Cc1c[nH]c2ccccc12)C(=O)N[C@H](Cc1ccccc1)C(=O)N[C@@H](CCCNC(=N)N)C(=O)N[C@@H](Cc1c[nH]c2ccccc12)C(N)=O [Peptide 10, Octanoyl-Trp-DPhe-Arg-Trp-NH2] (Octanoyl-W[dF]RW-NH2)	58 ± 7 nM	decreased potencies	180 ± 40 nM	13	–	210 ± 30 nM	50%−65%	11	–	mMC1R pharmacology in words (mMC1R): equipotent
CCCCCCCC(=O)N[C@H](Cc1c[nH]cn1)C(=O)N[C@H](Cc1ccccc1)C(=O)N[C@@H](CCCNC(=N)N)C(=O)N[C@@H](Cc1c[nH]c2ccccc12)C(N)=O [Peptide 9, Octanoyl-DHis-DPhe-Arg-Trp-NH2]	290 ± 40 nM	decreased potencies	340 ± 30 nM	25	–	230 ± 30 nM	–	55	4200 ± 800 nM	mMC5R fold less potent than peptide 1 (mMC5R): 55 fold; mMC3R Fold Diff (mMC3R [3]): 7
CC(=O)N[C@@H](Cc1cccnc1)C(=O)N[C@H](Cc1ccccc1)C(=O)N[C@@H](CCCNC(=N)N)C(=O)N[C@@H](Cc1ccc2ccccc2c1)C(N)=O [Peptide 23, Ac-3PAL-DPhe-Arg-Nal(2’)-NH2] (Ac-[3Pal][dF]R[2Nal]-NH2)	240 ± 50 nM	–	110 ± 20 nM	8	14	1900 ± 600 nM	–	45	> 100000 nM	mMC4R fold less potent than compound 1 (mMC4R [2]): 8 fold; mMC1R fold decrease in potency compared to compound 1 (mMC1R; less potent than 1): 14 fold
CC(=O)N[C@@H](Cc1ccncc1)C(=O)N[C@H](Cc1ccc(-c2ccccc2)cc1)C(=O)N[C@@H](CCCNC(=N)N)C(=O)N[C@@H](Cc1c[nH]c2ccccc12)C(N)=O [Peptide 22, Ac-4PAL-DBip-Arg-Trp-NH2] (Ac-[4Pal][dBip]RW-NH2)	1300 ± 300 nM	–	1300 ± 200 nM	92	14	1900 ± 720 nM	45%	235	–	Kb (mMC3R [1]): 316 nM; mMC3R pharmacology class printed in Fold Diff column (Ant, SA) (mMC3R [1]): SA Ant
